Where two headings read alike, the source gives them in different places. Marks after values point to notes of the source that are not given here.
Assays:
[1] = system: TGFβ signal; assay: TGFβ signal inhibitory activity, (SBE)4-Luc reporter in A549 cells (Test Examples 1A and 1B); assay type: cell-based, human; conditions: Homo sapiens, A549, read-out: TGFβ inhibition rate, %
Summary of the method: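 Compounds at 3 µM and 10 µM (some 1 µM) were added with 2 ng/ml TGFβ-1 to A549 cells stably expressing an SBE-driven luciferase, then cultured 4 hr. Chemiluminescent luciferase signal gave % inhibition versus TGFβ-alone and no-TGFβ controls.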

[2] = system: mouse unilateral ureteral obstruction (UUO) model; assay: Anti-fibrotic activity, mouse UUO model, mixed feed for 10 days (Test Example 3); assay type: in vivo; conditions: UUO treatment, kidney, average of five mice ± standard deviation
Experimental: The anti-fibrotic activity of the compounds related to the present invention was evaluated using a mouse unilateral ureteral obstruction (UUO) model which is a renal fibrosis model. Compound r384 produced in the working example was used as the test compound. Seven week-old male BALB/c mice (available from Charles River Japan, Inc.) were purchased and were pre-raised before use in experiments. Regarding diets and drinking water, pellets CE-2 (available from CLEA JAPAN INC.) and sterile tap water were freely fed. The mice underwent laparotomy under pentobarbital anesthesia, and the left renal urinary duct was ligated. […] After administration for 4 days, the mouse left kidney was removed, and the hydroxyproline content as an index of organ fibrosis was measured by the following method. […] The absorbance at 557 nm was then measured. The content of hydroxyproline was determined from the measured data based on a calibration curve for hydroxyproline prepared using control. Further, the content of hydroxyproline thus determined was corrected according to the weight of the homogenized kidney. The anti-fibrotic activity of a compound related to the present invention was evaluated using the same model as used in Test Example 2. […]

[3] = system: rat unilateral ureteral obstruction (UUO) model; assay: Anti-fibrotic activity, rat unilateral ureteral obstruction (UUO) model (Test Example 5); assay type: in vivo, SD rats; conditions: UUO treatment, left kidney, corrected by total protein of kidney extract, average of 6 rats ± standard deviation
Experimental: The anti-fibrotic activity of the compounds described in the present specification was evaluated using a rat unilateral ureteral obstruction (UUO) model which is a renal fibrosis model. Compound 50 and compound 159 were used as the test compound. Six week-old male SD rats (available from Charles River Japan, Inc.) were purchased and were pre-raised before use in experiments. Regarding diets and drinking water, pellets CE-2 (available from CLEA JAPAN INC.) and sterile tap water were freely fed. The rats underwent laparotomy under pentobarbital anesthesia, and the left renal urinary duct was ligated. Thereafter, the […] underwent suturing operation and were divided into a vehicle administration group (n = 6) and a test compound administration group (n = 6) using the weight as an index. The test compound was mixed in amounts of 0.03% and 0.1% in powder diet CE-2 (available from CLEA JAPAN INC.), and the mixtures were fed as a diet to each rat group from the first day of the ureteral obstruction.
After administration of the mixed feed for 7 days, the left kidney was removed, and the hydroxyproline content as an index of organ fibrosis was measured by the following method. Specifically, renal pieces were first placed in 6 N HCl, were homogenized, and were then heated on a heat block at 130°C for 3 hr to hydrolyze protein. Thereafter, the suspension of renal pieces was neutralized by the addition of an appropriate amount of 4 N NaOH. The neutralized suspension was centrifuged (1000 rpm, 5 min, room temperature) to obtain the supernatant as a kidney extract. A chloramine T liquid, a perchloric acid solution (a solution prepared by adding distilled water to 31.5 ml of 60% perchloric acid to adjust the total volume to 100 ml), and a p-dimethylaminobenzaldehyde solution (a solution prepared by adding […] to 20 g of p-dimethylaminobenzaldehyde to adjust the total volume to 100 ml) were added to the kidney extract, and a reaction was allowed to proceed at 60°C for 20 min. The absorbance at 557 nm was then measured. The content of hydroxyproline was determined from the measured data based on a calibration curve for hydroxyproline prepared using control. Further, the content of hydroxyproline thus determined was corrected according to the total protein content of the kidney extract.
The values in the tables are average of data on 6 rats for each group ± standard deviation.

[4] = system: mouse unilateral ureteral obstruction (UUO) model; assay: Anti-fibrotic activity, mouse unilateral ureteral obstruction (UUO) model, oral administration (Test Example 2); assay type: in vivo, BALB/c mice; conditions: UUO treatment, left kidney, average of 7 mice ± standard deviation
Experimental: The anti-fibrotic activity of the compounds related to the present invention was evaluated using a mouse unilateral ureteral obstruction (UUO) model which is a renal fibrosis model. Compound r384 produced in the working example was used as the test compound. Seven week-old male BALB/c mice (available from Charles River Japan, Inc.) were purchased and were pre-raised before use in experiments. Regarding diets and drinking water, pellets CE-2 (available from CLEA JAPAN INC.) and sterile tap water were freely fed. The mice underwent laparotomy under pentobarbital anesthesia, and the left renal urinary duct was ligated. Thereafter, the mice underwent suturing operation and were divided into a vehicle administration group (n = 7) and a test compound administration group (n = 7) using the weight as an index. The test compound was weighed, and then one drop of 1 N HCl was added to the test compound to prepare a solution. The solution was then suspended in 0.5% carboxymethylcellulose (solvent). The suspension was forcibly orally administered twice a day with an oral sonde from the day of urinary duct ligation (5, 15, or 50 mg/kg). The solvent was administered to the vehicle administration group in the same manner as described just above.
After administration for 4 days, the mouse left kidney was removed, and the hydroxyproline content as an index of organ fibrosis was measured by the following method. Renal pieces were first placed in 6 N HCl, were homogenized, and were then heated on a heat block at 130°C for 3 hr to hydrolyze protein. Thereafter, the suspension of renal pieces was neutralized by the addition of an appropriate amount of 4 N NaOH. The neutralized suspension was centrifuged (1000 rpm, 5 min, room temperature) to obtain the supernatant as a kidney extract. […] The absorbance at 557 nm was then measured. The content of hydroxyproline was determined from the measured data based on a calibration curve for hydroxyproline prepared using control. Further, the content of hydroxyproline thus determined was corrected according to the weight of the homogenized kidney. […]

[5] = system: mouse DMN hepatic fibrosis model; assay: Anti-fibrotic activity, mouse DMN hepatic fibrosis model (Test Example 4); assay type: in vivo, BALB/c mice; conditions: DMN administration, 21 days, average of 6 mice ± standard deviation
Experimental: The anti-fibrotic activity of a compound related to the present invention was evaluated using a mouse DMN hepatic fibrosis model as a liver fibrosis model. Compound r384 prepared in the working example was used as the test compound. Six-week-old male BALB/c mice (available from Charles River Japan, Inc.) were purchased and were pre-raised before use in experiments. The mice were divided into a vehicle administration group (n = 6) and a test compound administration group ([…]) using the weight as an index. Thereafter, dimethylnitrosoamine (DMN) diluted with physiological saline was intraperitoneally administered at 15 mg/kg three times per week for 3 weeks to induce hepatic fibrosis. The administration of the test compound was carried out from the first day of the DMN administration. The test compound was mixed at the dosage of 0.015, 0.03, and 0.06% in powder diet CE-2 (available from CLEA JAPAN INC.), and the mixtures were fed as a diet to each mouse group. After 21 days, the mice underwent laparotomy under ether anesthesia, and blood was collected from the heart, followed by measurement of the level of hyaluronic acid in blood as an index of hepatic fibrosis using a hyaluronic acid plate (Chugai Pharmaceutical Co., Ltd.).
The values in the table are average of data on 6 mice for each group ± standard deviation.

[6] = 3 µM, compounds of Reference Examples (Test Example 1B)
[7] = 10 µM, compounds of Reference Examples (Test Example 1B)
[8] = test compound 3 µM, TGFβ-1 2 ng/ml, 4 hr, Table 1A
[9] = test compound 10 µM, TGFβ-1 2 ng/ml, 4 hr, Table 1A

**Q.** How did the inhibition at 3 µM [1, 6] turn out when `COc1cc2c(Oc3cc(C)c(C)cc3C(C)=O)ccnc2cc1OCCCN1CCOCC1.Cl` [Compound r320, 1-{2-[6-Methoxy-7-(3-morpholin-4-yl-propoxy)-quinolin-4-yloxy]-4,5-dimethyl-phenyl}-ethanone hydrochloride] was run?
**A.** 100%

**Q.** What about the inhibition at 10 µM [1, 7] of the same compound?
**A.** 100%

**Q.** And the “Hydroxyproline content (mg/g protein)” value ([2]; 0.1% mixed feed for 10 days)?
**A.** 9.44 ± 0.53 mg/g protein

**Q.** What about the “Hydroxyproline content (mg/g protein)” value ([2]; 0.3% mixed feed for 10 days) of the same compound?
**A.** 9.19 ± 0.38 mg/g protein

**Q.** For `CCc1ccc(Oc2ccnc3cc(OC)c(OC)cc23)c(-c2ncccn2)n1` [Compound 50, 4-(6-Ethyl-2-pyrimidin-2-yl-pyridin-3-yloxy)-6,7-dimethoxy-quinoline], which inhibition at 3 µM [1, 8] is on record?
**A.** 98%

**Q.** And the inhibition at 10 µM [1, 9]?
**A.** 100%

**Q.** What about the “Hydroxyproline content” value ([3]; 0.03% mixed feed for 7 days, Table 5a) of the same compound?
**A.** 7.33 ± 0.67 mg/g

**Q.** And the “Hydroxyproline content” value ([3]; 0.1% mixed feed for 7 days, Table 5a)?
**A.** 4.67 ± 0.22 mg/g

**Q.** For `CCc1ccc(Oc2ccnc3cc(OC)c(F)cc23)c(-c2ncccn2)n1` [Compound 159, 4-(6-Ethyl-2-pyrimidin-2-yl-pyridin-3-yloxy)-6-fluoro-7-methoxy-quinoline], which inhibition at 3 µM [1, 8] is on record?
**A.** 99%

**Q.** And the inhibition at 10 µM [1, 9]?
**A.** 100%

**Q.** And the “Hydroxyproline content” value ([3]; 0.03% mixed feed for 7 days, Table 5b)?
**A.** 22.47 ± 0.82 mg/g

**Q.** And the “Hydroxyproline content” value ([3]; 0.1% mixed feed for 7 days, Table 5b)?
**A.** 17.28 ± 0.87 mg/g

**Q.** With `COc1cc2c(Oc3cc4ccccc4nc3C)ccnc2cc1OCC(O)CO` (stereo not shown) [Compound r384, 3-[6-Methoxy-4-(2-metharl-quinolin-3-yloxy)-quinolin-7-yloxy]-propane-1,2-diol] as the compound, how does the inhibition at 3 µM [1, 6] read?
**A.** 100%

**Q.** What about the inhibition at 10 µM [1, 7] of the same compound?
**A.** 100%

**Q.** And the Hydroxyproline content ([4]; 5 mg/kg orally twice a day for 4 days)?
**A.** 514 ± 20.8 µg/g

**Q.** And the Hydroxyproline content ([4]; 15 mg/kg orally twice a day for 4 days)?
**A.** 488 ± 10.9 µg/g

**Q.** And the Hydroxyproline content ([4]; 50 mg/kg orally twice a day for 4 days)?
**A.** 426 ± 14.2 µg/g

**Q.** And the “Blood hyaluronic acid content” value ([5]; 0.015% mixed feed)?
**A.** 167.8 ± 25.0 ng/mL

**Q.** What about the “Blood hyaluronic acid content (ng/ml)” value ([5]; 0.06% mixed feed) of the same compound?
**A.** 97.2 + 11.0** ng/ml
